{"source": "patent US20100247444A1", "about": "“COMPOUND, […], NUCLEAR […] RESONANCE […] METHOD, NUCLEAR […] RESONANCE IMAGING METHOD, MASS SP[…] AND MASS SP[…] METHOD” (KYOTO UNIVERSITY, priority 2007, published 2010)", "settings": "Meth-A cancer bearing BALB/c mouse, 100 μl of 2 mg/ml in PBS via tail vein, organs collected after 1 hour", "method": "(i) Preparation of a cancer bearing mouse Meth-A cells cultured in abdominal cavity of a BALB/c mouse were harvested by administrating 50 ml saline to the mouse. The cells were collected by centrifugation and resuspended in PBS (50 ml). The cells were counted and prepared at 2.0×10^7/ml. 100 μl of the solution containing the cells was subcutaneously injected to a left foot of another BALE/c mouse. […] After 1 hour, the mouse was dissected and the necessary organs (blood (200 μl), liver, kidney, cancer) were collected into microtubes. 1× Lysis buffer (500 μl) was added to each of the tubes and the organs were mashed by using beads. The microtubes were centrifuged (14,000 rpm, 30 min) for the debris to be precipitated and the supernatants were collected and subjected to multiple resonance measurement utilizing magnetic coherence transfer between three elements of ^1H—^13C—^15N."}
{"smiles": "[13CH3][15N+]([13CH3])([13CH3])CCO", "note": "[^13C3—^15N-choline chloride]", "values": [{"measurement": "signals derived from methyl groups of cholines (triple resonance NMR, 3.0 ppm) in cancer", "setting": "cancer tissue lysate supernatant", "value": "detected"}, {"measurement": "signals derived from methyl groups of cholines (triple resonance NMR, 3.0 ppm) in kidney", "setting": "kidney lysate supernatant", "value": "detected"}]}
